Tests used:
Sprague-Dawley rats = test: Geller-Seifter conflict test; assay type: in vivo; details: subcutaneous administration (Figure 10)
Description: This animal model of human anxiety utilizes a conditioned state of conflict in rats to ascertain the anxiolytic properties of drugs. […] The first includes bar pressing under a variable […] schedule without punishment. The second component is a fixed ratio schedule with each bar press resulting in a positive reinforcement and a punishment. The punished component produces a state of conflict within the animal. […] An anxiolytic response would increase the punished responding without affecting the unpunished responding.
Rats were housed individually under a 12-hour light-dark cycle with lights on from 0700-1900.
Rats were trained in test chambers (Coulbourn instruments) with a lever mounted in one wall, a small dipper that delivered the 0.1-mL milk reward (1 part Eagle condensed : milk 2 parts water), and a metal grid floor through which the foot-shock punishment was administered. A DEC PDP 11/73 minicomputer nmning SKED (State Systems) was used for programming and recording.
Rates initially learned to respond on a continuous reinforcement schedule and progressed rapidly to 30-sec, 1-min, and 2-min variable interval (VI) schedules. On the continuous reinforcement schedule, rats received milk reward following every lever press; on the VI schedules, milk rewards were available at infrequent and variable intervals, eventually at an average of once every 2 min. […] During conflict periods, which were signalled by the presentation of a light and a tone, the continuous reinforcement schedule was again in force and each lever press delivered both a milk reward and a brief ([…]) foot-shock Shock intensity was 0.2 mA initially, and.was increased daily in increments of 0.02 mA in order to gradually suppress lever pressing to 5 responses or less per conflict period. […] Drug-induced increases in the rate of punished responses were taken as an index of antianxiety activity, while decreases in the rate of unpunished responses were taken as an index of response depression or sedation.

[1] = system: metrazol induced convulsions; test: animal or person; assay type: in vivo, mice; details: Mus musculus; metrazol 85 mg/kg s.c., steroids i.p., mice
tonic seizure = test: Maximal electroshock test; assay type: in vivo; details: Mus musculus, ip, steroids i.p., mice
Description: (§1) The anticonvulsant tests are similar to that described above. […] The number of animals with tonic and/or clonic convulsions was recorded. In the maximal electroshock test, 50 mA of current at 60 Hz was delivered through corneal electrodes for 200 msec to induce tonic seizure. The ability of compounds to abolish the tonic component was defined as the endpoint. General CNS depression potential was determined by a rotorod test 10 minutes after the injection of compounds where the number of mice staying on a rotating (6 rpm) rod for 1 minute in one of the three trials was determined. […] Table 7. Anticonvulsant Activity of Exemplified Neuroactive Steroids and those of Selected Clinically Useful Anticonvulsants in Mice

[2] = system: N.I.H. Swiss-Webster mice; test: Elevated plus-maze; assay type: in vivo; details: 5 min test, ten minutes after injection (Fig. 9A)
Description: The theoretical basis for the elevated plus-maze test is similar to that of the light/dark transition test. […] The apparatus consists of two open-arms and two enclosed-arms. The elevated plus-maze test allows for two measures of anxiety, the number of entries into the open-arms and the time spent on the open-arms, both expressed as a percentage of the total number of entries and time spent in/on both the open-arms and enclosed-arms.
Male N.LH. Swiss-Webster mice (Harlan, Indianapolis, IN) weighing 15-20 g were housed four per cage in polyethylene cages with sawdust bedding. The colony mom was environmentally controlled (22°C) with a 12^- hr light/dark cycle (0600-1800 hr). Food and water were available ad libitum, except during testing. The experiments were run from 0700-1500 hr and groups were counterbalance for time of day effects. Mice were only administered drug or vehicle once.
The apparatus included two open arms perpendicular to two enclosed arms elevated 50 cm from the floor. Each arm was 50 cm long and the walls of the enclosed arms were 40 cm tall. The maze was made completely of black plexiglass. Incandescent 200 W light bulbs were above each of the open arms to produce a strong contrast between the open arms and the enclosed arms.
Ten minutes after an injection, the N.I.H. Swiss-Webster mice were placed in the center of the plus-maze facing an open arm. During the 5 min test period, the number of entries onto the open arms and the enclosed arms, and the time spent in the open arms and enclosed arms were measured. All four paws had to be within an arm for the dependent variable to be measured. Therefore, the time spent in the center of the maze is not counted, so the total time spent in the open arms and the enclosed arms may not equal 5 min.

[3] = Rotorod test (general CNS depression potential); details: mouse, in vivo, ip
Description: as §1

Structure (SMILES) | dose of peak effect on rate of punished responses (Sprague-Dawley rats) | ED50 [1] | ED50 (tonic seizure) | dose producing significant increase in entries into the open-arms [2] | ED50 at 10 min [3]
CC(=O)[C@H]1CC[C@H]2[C@@H]3CC[C@H]4C[C@H](O)CC[C@]4(C)[C@H]3CC[C@]12C [3α-Hydroxy-5α-pregnan-20-one, 3α-hydroxy-5α-pregnan-20-one] | 4.4 mg/kg | 4.9 mg/kg | 28.6 mg/kg | 20 mg/kg | –
C[C@]12CC[C@@H](O)C[C@@H]1CC[C@@H]1[C@@H]2CC[C@]2(C)[C@@H](C(=O)CO)CC[C@@H]12 [3α,21-dihydroxy-5α-pregnan-20-one] | – | 8.1 mg/kg | 26.7 mg/kg | – | 22.9 mg/kg

Reference: patent EP1038880B1, “Androstanes and pregnanes for allosteric modulation of GABA receptor” (priority 1994, dated 1995)
